{"source": "patent US20230201217A1", "about": "(priority 2019, published 2023)", "key": {"[1]": {"system": "cynomolgus monkeys", "assay": "14-day nasogastric gavage GLP toxicity study in cynomolgus monkeys", "format": "in vivo, cynomolgus monkey", "text": "Assessments of neurobehavioral effects and general toxicity were based on mortality, functional observational battery (FOB) evaluations, clinical observations, body weight, and body temperature; ophthalmoscopic, electrocardiographic examinations; and anatomic and clinical pathology. The anatomical pathology evaluations included histopathology of a full list of tissues from all animals and a comprehensive evaluation of the central nervous system (including selected peripheral nerves) utilizing whole body perfusion and special stains. Bone marrow smears from all animals were evaluated microscopically. Complete differentials and myeloid-erythroid (ME) ratios were performed. Toxicokinetic assessment was conducted for the test article and metabolites."}, "[2]": {"system": "animal substance use models", "conditions": "i.p.; cited from earlier work"}, "[3]": {"system": "Sprague Dawley rats", "assay": "Modified Irwin test, pilot dose finding study, female rats", "format": "in vivo, rat", "conditions": "single oral dose 30-800 mg/kg", "protocol": "Under the conditions of this study, the no-observed-effect level (NOEL) and no-observed-adverse-effect level (NOAEL) were considered to be 90 mg/kg and 400 mg/kg, respectively."}, "[4]": {"conditions": "400/300 mg/kg/day F, 3 examined"}, "[5]": {"conditions": "400/300 mg/kg/day M, 4 examined"}}, "data": [{"molecule": "COCCC1CC2CN3CCc4c([nH]c5ccccc45)C(C(=O)OC)(C2)C13.Cl", "note": "(stereo not shown) [18-MC HCl, 18-Methoxycoronaridine hydrochloride]", "values": [{"measurement": "Thymus: Depletion, lymphoid, cortex; number with observation", "setting": "[1]; 150 mg/kg/day F, 3 examined", "result": 3}, {"measurement": "Bone marrow, femur: Depletion, mixed, mild; number with observation", "setting": "[1]; 150 mg/kg/day M", "result": 0}, {"measurement": "Bone marrow, femur: Depletion, mixed, minimal; number with observation", "setting": "[1]; 150 mg/kg/day M", "result": 1}, {"measurement": "Bone marrow, femur: Depletion, mixed, moderate; number with observation", "setting": "[1]; 150 mg/kg/day M", "result": 0}, {"measurement": "Bone marrow, rib: Depletion, mixed, mild; number with observation", "setting": "[1]; 150 mg/kg/day M", "result": 0}, {"measurement": "Bone marrow, rib: Depletion, mixed, minimal; number with observation", "setting": "[1]; 150 mg/kg/day M", "result": 1}, {"measurement": "Bone marrow, rib: Depletion, mixed, moderate; number with observation", "setting": "[1]; 150 mg/kg/day M", "result": 0}, {"measurement": "Bone marrow, rib: Depletion, mixed; number with observation", "setting": "[1]; 150 mg/kg/day M", "result": 1}, {"measurement": "Bone marrow, sternum: Depletion, mixed, mild; number with observation", "setting": "[1]; 150 mg/kg/day M", "result": 0}, {"measurement": "Bone marrow, sternum: Depletion, mixed, minimal; number with observation", "setting": "[1]; 150 mg/kg/day M", "result": 1}, {"measurement": "Bone marrow, sternum: Depletion, mixed, moderate; number with observation", "setting": "[1]; 150 mg/kg/day M", "result": 0}, {"measurement": "Bone marrow, sternum: Depletion, mixed; number with observation", "setting": "[1]; 150 mg/kg/day M", "result": 1}, {"measurement": "Liver: Hypertrophy, hepatocellular, panlobular, mild; number with observation", "setting": "[1]; 150 mg/kg/day M", "result": 3}, {"measurement": "Liver: Hypertrophy, hepatocellular, panlobular, minimal; number with observation", "setting": "[1]; 150 mg/kg/day M", "result": 0}, {"measurement": "Thymus: Depletion lymphoid, generalized, mild; number with observation", "setting": "[1]; 150 mg/kg/day M", "result": 0}, {"measurement": "Thymus: Depletion lymphoid, generalized, moderate; number with observation", "setting": "[1]; 150 mg/kg/day M", "result": 0}, {"measurement": "Thymus: Depletion lymphoid, generalized; number with observation", "setting": "[1]; 150 mg/kg/day M", "result": 0}, {"measurement": "Thymus: Depletion, lymphoid, cortex, mild; number with observation", "setting": "[1]; 150 mg/kg/day M", "result": 2}, {"measurement": "Thymus: Depletion, lymphoid, cortex, minimal; number with observation", "setting": "[1]; 150 mg/kg/day M", "result": 1}, {"measurement": "Thymus: Depletion, lymphoid, cortex, moderate; number with observation", "setting": "[1]; 150 mg/kg/day M", "result": 0}, {"measurement": "mean cumulative body gain (Days 1-14)", "setting": "[1]; 150 mg/kg/day M", "result": -0.28, "unit": "kg"}, {"measurement": "Bone marrow, femur: Depletion, mixed; number with observation", "setting": "[1]; 150 mg/kg/day M, 3 examined", "result": 1}, {"measurement": "Liver: Hypertrophy, hepatocellular, panlobular; number with observation", "setting": "[1]; 150 mg/kg/day M, 3 examined", "result": 3}, {"measurement": "Thymus: Depletion, lymphoid, cortex; number with observation", "setting": "[1]; 150 mg/kg/day M, 3 examined", "result": 3}, {"measurement": "mortality", "setting": "[1]; 400 mg/kg, first day of dosing", "result": "one male died"}, {"measurement": "Bone marrow, femur: Depletion, mixed, mild; number with observation", "setting": "[1]; 400/300 mg/kg/day F", "result": 0}, {"measurement": "Bone marrow, femur: Depletion, mixed, minimal; number with observation", "setting": "[1]; 400/300 mg/kg/day F", "result": 1}, {"measurement": "Bone marrow, femur: Depletion, mixed, moderate; number with observation", "setting": "[1]; 400/300 mg/kg/day F", "result": 0}, {"measurement": "Bone marrow, rib: Depletion, mixed, mild; number with observation", "setting": "[1]; 400/300 mg/kg/day F", "result": 1}, {"measurement": "Bone marrow, rib: Depletion, mixed, minimal; number with observation", "setting": "[1]; 400/300 mg/kg/day F", "result": 0}, {"measurement": "Bone marrow, rib: Depletion, mixed, moderate; number with observation", "setting": "[1]; 400/300 mg/kg/day F", "result": 0}, {"measurement": "Bone marrow, rib: Depletion, mixed; number with observation", "setting": "[1]; 400/300 mg/kg/day F", "result": 1}, {"measurement": "Bone marrow, sternum: Depletion, mixed, mild; number with observation", "setting": "[1]; 400/300 mg/kg/day F", "result": 1}, {"measurement": "Bone marrow, sternum: Depletion, mixed, minimal; number with observation", "setting": "[1]; 400/300 mg/kg/day F", "result": 0}, {"measurement": "Bone marrow, sternum: Depletion, mixed, moderate; number with observation", "setting": "[1]; 400/300 mg/kg/day F", "result": 0}, {"measurement": "Bone marrow, sternum: Depletion, mixed; number with observation", "setting": "[1]; 400/300 mg/kg/day F", "result": 1}, {"measurement": "Liver: Hypertrophy, hepatocellular, panlobular, mild; number with observation", "setting": "[1]; 400/300 mg/kg/day F", "result": 3}, {"measurement": "Liver: Hypertrophy, hepatocellular, panlobular, minimal; number with observation", "setting": "[1]; 400/300 mg/kg/day F", "result": 0}, {"measurement": "Thymus: Depletion lymphoid, generalized, mild; number with observation", "setting": "[1]; 400/300 mg/kg/day F", "result": 2}, {"measurement": "Thymus: Depletion lymphoid, generalized, moderate; number with observation", "setting": "[1]; 400/300 mg/kg/day F", "result": 1}, {"measurement": "Thymus: Depletion lymphoid, generalized; number with observation", "setting": "[1]; 400/300 mg/kg/day F", "result": 3}, {"measurement": "Thymus: Depletion, lymphoid, cortex, mild; number with observation", "setting": "[1]; 400/300 mg/kg/day F", "result": 0}, {"measurement": "Thymus: Depletion, lymphoid, cortex, minimal; number with observation", "setting": "[1]; 400/300 mg/kg/day F", "result": 0}, {"measurement": "Thymus: Depletion, lymphoid, cortex, moderate; number with observation", "setting": "[1]; 400/300 mg/kg/day F", "result": 0}, {"measurement": "mean cumulative body gain (Days 1-14)", "setting": "[1]; 400/300 mg/kg/day F", "result": -0.09, "unit": "kg"}, {"measurement": "Bone marrow, femur: Depletion, mixed; number with observation", "setting": "[1]; [4]", "result": 1}, {"measurement": "Liver: Hypertrophy, hepatocellular, panlobular; number with observation", "setting": "[1]; [4]", "result": 3}, {"measurement": "Thymus: Depletion, lymphoid, cortex; number with observation", "setting": "[1]; [4]", "result": 0}, {"measurement": "Bone marrow, femur: Depletion, mixed, mild; number with observation", "setting": "[1]; 400/300 mg/kg/day M", "result": 1}, {"measurement": "Bone marrow, femur: Depletion, mixed, minimal; number with observation", "setting": "[1]; 400/300 mg/kg/day M", "result": 0}, {"measurement": "Bone marrow, femur: Depletion, mixed, moderate; number with observation", "setting": "[1]; 400/300 mg/kg/day M", "result": 1}, {"measurement": "Bone marrow, rib: Depletion, mixed, mild; number with observation", "setting": "[1]; 400/300 mg/kg/day M", "result": 1}, {"measurement": "Bone marrow, rib: Depletion, mixed, minimal; number with observation", "setting": "[1]; 400/300 mg/kg/day M", "result": 0}, {"measurement": "Bone marrow, rib: Depletion, mixed, moderate; number with observation", "setting": "[1]; 400/300 mg/kg/day M", "result": 1}, {"measurement": "Bone marrow, rib: Depletion, mixed; number with observation", "setting": "[1]; 400/300 mg/kg/day M", "result": 2}, {"measurement": "Bone marrow, sternum: Depletion, mixed, mild; number with observation", "setting": "[1]; 400/300 mg/kg/day M", "result": 1}, {"measurement": "Bone marrow, sternum: Depletion, mixed, minimal; number with observation", "setting": "[1]; 400/300 mg/kg/day M", "result": 0}, {"measurement": "Bone marrow, sternum: Depletion, mixed, moderate; number with observation", "setting": "[1]; 400/300 mg/kg/day M", "result": 1}, {"measurement": "Bone marrow, sternum: Depletion, mixed; number with observation", "setting": "[1]; 400/300 mg/kg/day M", "result": 2}, {"measurement": "Liver: Hypertrophy, hepatocellular, panlobular, mild; number with observation", "setting": "[1]; 400/300 mg/kg/day M", "result": 3}, {"measurement": "Liver: Hypertrophy, hepatocellular, panlobular, minimal; number with observation", "setting": "[1]; 400/300 mg/kg/day M", "result": 0}, {"measurement": "Thymus: Depletion lymphoid, generalized, mild; number with observation", "setting": "[1]; 400/300 mg/kg/day M", "result": 1}, {"measurement": "Thymus: Depletion lymphoid, generalized, moderate; number with observation", "setting": "[1]; 400/300 mg/kg/day M", "result": 2}, {"measurement": "Thymus: Depletion lymphoid, generalized; number with observation", "setting": "[1]; 400/300 mg/kg/day M", "result": 3}, {"measurement": "Thymus: Depletion, lymphoid, cortex, mild; number with observation", "setting": "[1]; 400/300 mg/kg/day M", "result": 0}, {"measurement": "Thymus: Depletion, lymphoid, cortex, minimal; number with observation", "setting": "[1]; 400/300 mg/kg/day M", "result": 0}, {"measurement": "Thymus: Depletion, lymphoid, cortex, moderate; number with observation", "setting": "[1]; 400/300 mg/kg/day M", "result": 0}, {"measurement": "mean cumulative body gain (Days 1-14)", "setting": "[1]; 400/300 mg/kg/day M", "result": -0.23, "unit": "kg"}, {"measurement": "Bone marrow, femur: Depletion, mixed; number with observation", "setting": "[1]; [5]", "result": 2}, {"measurement": "Liver: Hypertrophy, hepatocellular, panlobular; number with observation", "setting": "[1]; [5]", "result": 3}, {"measurement": "Thymus: Depletion, lymphoid, cortex; number with observation", "setting": "[1]; [5]", "result": 0}, {"measurement": "NOAEL", "setting": "[1]; 14 days", "result": 50, "unit": "mg/kg/day"}, {"measurement": "highest non-lethal dose", "setting": "[1]; cynomolgus monkey, in vivo", "result": 300, "unit": "mg/kg"}, {"measurement": "lowest dosage that significantly reduces drug self-administration", "setting": "[2]", "result": "≥ 10", "unit": "mg/kg"}, {"measurement": "no-observed-adverse-effect level (NOAEL)", "setting": "[3]", "result": 400, "unit": "mg/kg"}, {"measurement": "no-observed-effect level (NOEL)", "setting": "[3]", "result": 90, "unit": "mg/kg"}]}]}
